# Source: ChEMBL document CHEMBL5728678, “Heteroaryl compounds as BTK inhibitors and uses thereof” (2021)
# Key:
# [1] = target: Tyrosine-protein kinase BTK (Homo sapiens, UniProt Q06187); assay: Microfluidic Off-Chip Mobility Shift Assay Protocol for Potency Assessment Against BTK Enzyme: Briefly, 2.5× stocks of full-length human BTK (08-080) from CarnaBio USA, Inc., Natick, Mass., 1.6×ATP and appropriate kinKDR peptide substrate (FITC-AHA-[…]-NH2; developed in-house) were prepared in kinase reaction buffer consisting of 25 mM MgCl2, 0.015% Brij-35 (30%), 100 mM HEPES, pH 7.5, and 10 mM DTT. 5 uL of enzyme buffer and 7.5 uL of ATP/kinKDR peptide substrate mix were added to Matrix (#115304) 384-well, sterile, polypropylene plates (Thermo Fisher Scientific, Hudson, N.H.) with 125 nL of serially diluted compounds prepared in 100% DMSO, and incubated for 90 min. at 27° C. Following the incubation period, reactions were stopped by adding 60 uL stop buffer consisting of 100 mM HEPES, pH 7.5, 0.015% Brij-35 (30%), 0.277% Coating Reagent #3 (Caliper Life Sciences, Mountain View, Calif.), 5% DMSO. Stopped reactions were monitored at −2 PSI, −3000 V/−700 V in a LabChip 3000 plate reader from Caliper Life Sciences, a PerkinElmer Company (Hopkinton, Mass.), and the activity was measured by off-chip mobility shift assay measuring the charge/mass difference between substrate and product resulting from peptide phosphorilation. IC50 and efficacy were determined by plotting log [Inhibitor] vs. % Activity in GeneData Screener (Basel. Switzerland).
# Chain of Tyrosine-protein kinase BTK (Homo sapiens, UniProt Q06187) (Q06187 whole entry): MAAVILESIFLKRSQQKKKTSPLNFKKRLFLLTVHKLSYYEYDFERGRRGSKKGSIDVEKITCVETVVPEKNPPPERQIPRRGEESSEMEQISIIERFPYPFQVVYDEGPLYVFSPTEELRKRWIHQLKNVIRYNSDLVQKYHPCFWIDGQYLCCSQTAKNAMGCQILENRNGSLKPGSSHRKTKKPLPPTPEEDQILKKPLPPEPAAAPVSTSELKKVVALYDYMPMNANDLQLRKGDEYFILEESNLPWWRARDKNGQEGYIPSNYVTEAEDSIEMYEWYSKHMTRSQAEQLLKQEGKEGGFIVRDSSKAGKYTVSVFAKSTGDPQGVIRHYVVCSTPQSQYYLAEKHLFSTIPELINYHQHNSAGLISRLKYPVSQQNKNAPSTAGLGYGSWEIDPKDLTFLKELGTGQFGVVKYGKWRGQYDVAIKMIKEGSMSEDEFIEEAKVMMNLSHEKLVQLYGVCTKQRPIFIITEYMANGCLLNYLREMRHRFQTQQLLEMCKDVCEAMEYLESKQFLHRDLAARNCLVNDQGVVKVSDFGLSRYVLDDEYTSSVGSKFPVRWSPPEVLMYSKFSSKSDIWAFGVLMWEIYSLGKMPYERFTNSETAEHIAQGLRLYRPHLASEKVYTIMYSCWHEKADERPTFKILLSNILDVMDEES
# [2] = target: Tyrosine-protein kinase BTK (Homo sapiens, UniProt Q06187, C481S); assay: Microfluidic Off-Chip Mobility Shift Assay Protocol for Potency Assessment Against BTK C481S Enzyme: The protocol below describes a microfluidic, off-chip mobility shift kinase assay to measure inherent potency of compounds against BTK C481S enzyme. The mechanics of the assay platform are described by the vendor (PerkinElmer, Hopkinton, Mass.) on their website at the following URL: http://caliperls.com.Briefly, 2.5× stocks of His-TEV-hsBTK(328-659)(C481S) from the Merck Serono Protein Purification Laboratory in Darmstadt, Germany (PCS, Q27/234), 1.6×ATP and appropriate KinKDR peptide substrate (FITC-AHA-[…]-NH2; Tufts University Core Facility custom synthesis) were prepared in kinase reaction buffer consisting of 25 mM MgCl2, 0.015% Brij-35 (30%), 100 mM HEPES, pH 7.5, and 10 mM DTT.5 uL of enzyme buffer and 7.5 uL of ATP/KinKDR peptide substrate mix were added to Matrix (#4315) 384-well, sterile, flat-bottom polypropylene plates (Thermo Fisher Scientific, Hudson, N.H.) with 125 nL of serially diluted compounds prepared in 100% DMSO, and incubated for 90 min. at 25° C. Following the incubation period, reactions were terminated by adding 65 uL quench buffer consisting of 100 mM HEPES, pH 7.5, 0.015% Brij-35 (30%), 0.277% Coating Reagent #3 (PerkinElmer, Mountain View, Calif.), 5% DMSO. Terminated reactions were monitored at −2 PSI, −3000 V/−700 Volts in a LabChip 3000 plate reader from Caliper Life Sciences, a PerkinElmer Company (Hopkinton, Mass.), and the activity was quantified by laser-induced fluorescence measuring the charge/mass difference between substrate and product resulting from peptide phosphorylation. IC50 and efficacy were determined by plotting log [Inhibitor] vs. % Activity in GeneData Screener (Basel, Switzerland).
# Chain of Tyrosine-protein kinase BTK (Homo sapiens, UniProt Q06187, C481S) (Q06187 2-659 C481S limits assumed): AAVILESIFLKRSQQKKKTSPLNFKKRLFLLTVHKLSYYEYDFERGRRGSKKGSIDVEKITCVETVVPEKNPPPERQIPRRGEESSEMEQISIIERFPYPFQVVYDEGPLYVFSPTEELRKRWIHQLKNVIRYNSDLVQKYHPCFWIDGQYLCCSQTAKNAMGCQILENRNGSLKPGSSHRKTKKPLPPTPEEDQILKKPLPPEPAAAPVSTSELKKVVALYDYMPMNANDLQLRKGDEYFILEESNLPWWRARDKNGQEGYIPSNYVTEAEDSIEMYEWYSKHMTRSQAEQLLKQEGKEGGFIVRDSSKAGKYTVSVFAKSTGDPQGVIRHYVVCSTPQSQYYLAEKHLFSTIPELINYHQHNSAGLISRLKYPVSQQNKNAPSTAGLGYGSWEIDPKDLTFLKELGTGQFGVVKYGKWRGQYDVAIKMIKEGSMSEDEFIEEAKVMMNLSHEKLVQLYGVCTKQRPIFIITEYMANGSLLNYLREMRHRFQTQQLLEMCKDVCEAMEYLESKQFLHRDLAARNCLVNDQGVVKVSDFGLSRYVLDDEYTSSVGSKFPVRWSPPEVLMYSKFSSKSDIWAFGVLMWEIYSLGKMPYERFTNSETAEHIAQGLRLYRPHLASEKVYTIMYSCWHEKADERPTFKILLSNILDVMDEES
Compound,IC50 [1] [nM],IC50 [2] [nM]
CC(C)(C)c1noc(C(=O)NCc2ccc(-c3ccnc4[nH]c(C5=CCNCC5)nc34)cc2F)n1,< 100,
CCn1cc(-c2nc3c(-c4ccc(CNC(=O)c5cc(C(C)(C)C)on5)c(F)c4)ccnc3[nH]2)cn1,< 100,
Cn1cc(-c2nc3c(-c4cccc(CNC(=O)c5noc(C(C)(C)C)n5)c4)ccnc3[nH]2)cn1,,< 100
Cn1cc(-c2nc3c(-c4ccc(CNc5nccc6c5OCCN6C(=O)OC(C)(C)C)c(F)c4)ccnc3[nH]2)cn1,> 5000,
CC(C)(C)c1noc(C(=O)NCc2ccc(-c3ccnc4[nH]c([C@@H]5C[C@H]5c5ccccc5)nc34)cc2F)n1,> 5000,
CC(C)(C)c1nc(C(=O)NCc2ccc(-c3ccnc4[nH]c(-c5cnn(C6COC6)c5)nc34)cc2F)no1,,< 100
CC(C)(C)c1nc(C(=O)NCc2ccc(-c3ccnc4[nH]c(-c5cnn(C6CCOCC6)c5)nc34)cc2F)no1,,< 100
